Assay [1] addresses T1, His6-TEV-PPARγ-(234-505) (Homo sapiens, UniProt P37231).
T1 construct: The His6-TEV-PPARγ-(234-505) protein for assay was expressed and purified; TEV cleavage site (N); made in house
T1 sequence (P37231 234-505): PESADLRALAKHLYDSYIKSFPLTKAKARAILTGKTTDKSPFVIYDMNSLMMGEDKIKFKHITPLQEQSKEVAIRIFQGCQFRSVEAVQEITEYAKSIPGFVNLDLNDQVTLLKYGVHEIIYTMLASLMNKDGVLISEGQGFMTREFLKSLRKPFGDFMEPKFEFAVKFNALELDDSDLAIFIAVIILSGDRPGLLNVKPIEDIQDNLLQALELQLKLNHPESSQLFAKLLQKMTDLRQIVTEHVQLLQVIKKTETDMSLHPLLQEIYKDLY
The assay is described as follows: TR-FRET Assay to Measure Co-R Peptide Recruitment to PPARγ. The assay is classed as biochemical. The following applies: Co-R peptide (SMRT-ID2) recruitment; top final concentration 20 μM; read-out: TR-FRET i-Ag; AC50. The gist of the method: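 His-tagged PPARγ (or controls) was preincubated with compound for 20 minutes at room temperature, then 5 nM anti-His terbium antibody and 200 nM FITC-labeled SMRT-ID2 corepressor peptide (final) were added for a further hour. TR-FRET signal was normalized to percent response using 500 nM T0070907 and DMSO controls.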
In general terms: In TR-FRET formats the signal depends on donor and acceptor labels being close together.

Assay [2] relates to UM-UC-9 engineered cells. Briefly: Cell proliferation / short-term viability assay, CellTiter-Glo 144 h. The assay is classed as cell-based, human. The following applies: read-out: CTGlo 144 h UMUC9.5, G150. Put shortly:
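UM-UC-9 engineered assay-ready cells seeded at 500 cells/well in high-glucose DMEM/10% FBS, treated from dose-response plates, grown at 37° C, 5% CO2. CellTiter-Glo 2.0 luminescence read on day 7, with a day-0 pretreatment plate as T0 reference and DMSO wells as negative control.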
For orientation: Cellular ATP, detected with luciferase, serves as a proxy for viable cell number.

Structures are written as SMILES. Like-named read-outs stand apart in the source and are kept apart here.

For the molecule `COc1cc(-c2cc(C(=O)N3CCC(C(=O)N[C@H]4CC[C@@](O)(C(F)(F)F)CC4)C[C@@H]3C(F)(F)F)n[nH]2)c(F)cn1` (mixture of isomers) [Example 368, (2R,4R)-1-(5-(5-fluoro-2-methoxypyridin-4-yl)-1H-pyrazole-3-carbonyl)-N-((1r,4R)-4-hydroxy-4-(trifluoromethyl)cyclohexyl)-2-(trifluoromethyl)piperidine-4-carboxamide and (2R,4S)-1-(5-(5-fluoro-2-methoxypyridin-4-yl)-1H-pyrazole-3-carbonyl)-N-((1r,4S)-4-hydroxy-4-(trifluoromethyl)cyclohexyl)-2-(trifluoromethyl)piperidine-4-carboxamide], the AC50 in assay [1] amounted to 244 nM. Also, the IC50 in assay [2] (Homo sapiens, UM-UC-9, 144 h) stood at 497 nM.

As for `COc1cc(-c2cc(C(=O)N3CC[C@H](C(=O)NCC4CCS(=N)(=O)C4(C)C)CC34CC4)n[nH]2)c(F)cn1` (mixture of isomers) [Example 372-A], the AC50 in assay [1] is 696 nM. In addition, the IC50 in assay [2] (Homo sapiens, UM-UC-9, 144 h) was above 10000 nM.

For `COc1cc(-c2cc(C(=O)N3CCC(C(=O)NC(C)c4ncc(F)cc4Cl)CC34CC4)n[nH]2)c(F)cn1` (mixture of isomers) [Example 377, (S)—N—((R)-1-(3-chloro-5-fluoropyridin-2-yl)ethyl)-4-(5-(5-fluoro-2-methoxypyridin-4-yl)-1H-pyrazole-3-carbonyl)-4-azaspiro[2.5]octane-7-carboxamide and (S)—N—((S)-1-(3-chloro-5-fluoropyridin-2-yl)ethyl)-4-(5-(5-fluoro-2-methoxypyridin-4-yl)-1H-pyrazole-3-carbonyl)-4-azaspiro[2.5]octane-7-carboxamide], the AC50 in assay [1] came to 20.2 nM. In assay [2], the IC50 turned out to be 25.9 nM.

Consider `COc1cc(-c2cc(C(=O)N3CCC(C(=O)NC4C(C)(C)C(N5CCC(F)(F)C5)C4(C)C)CC34CC4)n[nH]2)c(F)cn1` (mixture of isomers) [Example 378, (S)—N-((1s,3R)-3-(3,3-difluoropyrrolidin-1-yl)-2,2,4,4-tetramethylcyclobutyl)-4-(5-(5-fluoro-2-methoxypyridin-4-yl)-1H-pyrazole-3-carbonyl)-4-azaspiro[2.5]octane-7-carboxamide and (S)—N-((1r,3S)-3-(3,3-difluoropyrrolidin-1-yl)-2,2,4,4-tetramethylcyclobutyl)-4-(5-(5-fluoro-2-methoxypyridin-4-yl)-1H-pyrazole-3-carbonyl)-4-azaspiro[2.5]octane-7-carboxamide], for which the AC50 in assay [1] was 130 nM. The IC50 in assay [2] amounted to 224 nM.

`COc1cc(-c2cc(C(=O)N3CCC(C(=O)NC4CN(CC(C)(C)F)CC4(F)F)CC34CC4)n[nH]2)c(F)cn1` (mixture of isomers) [Example 379, (S)—N—((S)-4,4-difluoro-1-(2-fluoro-2-methylpropyl)pyrrolidin-3-yl)-4-(5-(5-fluoro-2-methoxypyridin-4-yl)-1H-pyrazole-3-carbonyl)-4-azaspiro[2.5]octane-7-carboxamide and (S)—N—((R)-4,4-difluoro-1-(2-fluoro-2-methylpropyl)pyrrolidin-3-yl)-4-(5-(5-fluoro-2-methoxypyridin-4-yl)-1H-pyrazole-3-carbonyl)-4-azaspiro[2.5]octane-7-carboxamide]: the AC50 in assay [1] was found to be 12.2 nM. In addition, the IC50 in assay [2] was 11 nM.

Take `COc1cc(-c2cc(C(=O)N3CCC(C(=O)NC4CCOc5ccc(C)nc54)CC34CC4)n[nH]2)c(F)cn1` (mixture of isomers) [Example 380, (S)-4-(5-(5-fluoro-2-methoxypyridin-4-yl)-1H-pyrazole-3-carbonyl)-N—((R)-6-methyl-3,4-dihydro-2H-pyrano[3,2-b]pyridin-4-yl)-4-azaspiro[2.5]octane-7-carboxamide and (S)-4-(5-(5-fluoro-2-methoxypyridin-4-yl)-1H-pyrazole-3-carbonyl)-N—((S)-6-methyl-3,4-dihydro-2H-pyrano[3,2-b]pyridin-4-yl)-4-azaspiro[2.5]octane-7-carboxamide]: in assay [1], the AC50 was found to be 30.6 nM. In addition, in assay [2], the IC50 is 43.7 nM.

With `COc1cc(-c2cc(C(=O)N3CCC(C(=O)NCC4CCc5[nH]nc(C)c5C4)CC34CC4)n[nH]2)c(F)cn1` (mixture of isomers) [Example 382, (S)-4-(5-(5-fluoro-2-methoxypyridin-4-yl)-1H-pyrazole-3-carbonyl)-N—(((S)-3-methyl-4,5,6,7-tetrahydro-1H-indazol-5-yl)methyl)-4-azaspiro[2.5]octane-7-carboxamide and (S)-4-(5-(5-fluoro-2-methoxypyridin-4-yl)-1H-pyrazole-3-carbonyl)-N—(((R)-3-methyl-4,5,6,7-tetrahydro-1H-indazol-5-yl)methyl)-4-azaspiro[2.5]octane-7-carboxamide], the AC50 in assay [1] was determined as 4 nM. Further, the IC50 in assay [2] was found to be 10 nM.

With `COc1cc(-c2cc(C(=O)N3CCC(C(=O)NC4CCOc5cc(F)cnc54)CC34CC4)n[nH]2)c(F)cn1` (mixture of isomers) [Example 383, (S)-4-(5-(5-fluoro-2-methoxypyridin-4-yl)-1H-pyrazole-3-carbonyl)-N—((R)-7-fluoro-3,4-dihydro-2H-pyrano[3,2-b]pyridin-4-yl)-4-azaspiro[2.5]octane-7-carboxamide and (S)-4-(5-(5-fluoro-2-methoxypyridin-4-yl)-1H-pyrazole-3-carbonyl)-N—((S)-7-fluoro-3,4-dihydro-2H-pyrano[3,2-b]pyridin-4-yl)-4-azaspiro[2.5]octane-7-carboxamide], the AC50 in assay [1] came out at 33.1 nM. The IC50 in assay [2] turned out to be 43.1 nM.

Turning to `COc1cc(-c2cc(C(=O)N3CCC(C(=O)NC4CCN(c5cccnc5)C4)CC34CC4)n[nH]2)c(F)cn1` (mixture of isomers) [Example 390, (S)-4-(5-(5-fluoro-2-methoxypyridin-4-yl)-1H-pyrazole-3-carbonyl)-N—((R)-1-(pyridin-3-yl)pyrrolidin-3-yl)-4-azaspiro[2.5]octane-7-carboxamide and (S)-4-(5-(5-fluoro-2-methoxypyridin-4-yl)-1H-pyrazole-3-carbonyl)-N—((S)-1-(pyridin-3-yl)pyrrolidin-3-yl)-4-azaspiro[2.5]octane-7-carboxamide], the AC50 in assay [1] was determined as 4.2 nM. The IC50 in assay [2] amounted to 7.1 nM.

For the molecule `COc1cc(-c2cc(C(=O)N3CCC(C(=O)NC4CCN(C5COC5)C4)CC34CC4)n[nH]2)c(F)cn1` (mixture of isomers) [Example 396, (S)-4-(5-(5-fluoro-2-methoxypyridin-4-yl)-1H-pyrazole-3-carbonyl)-N—((R)-1-(oxetan-3-yl)pyrrolidin-3-yl)-4-azaspiro[2.5]octane-7-carboxamide and (S)-4-(5-(5-fluoro-2-methoxypyridin-4-yl)-1H-pyrazole-3-carbonyl)-N—((S)-1-(oxetan-3-yl)pyrrolidin-3-yl)-4-azaspiro[2.5]octane-7-carboxamide], the AC50 in assay [1] was 97.7 nM. Also, the IC50 in assay [2] came out at 293 nM.

In the case of `COc1cc(-c2cc(C(=O)N3CCC(C(=O)NC(C)C45CCC(O)(CC4)CC5)CC34CC4)n[nH]2)c(F)cn1` (mixture of isomers) [Example 411, (S)-4-(5-(5-fluoro-2-methoxypyridin-4-yl)-1H-pyrazole-3-carbonyl)-N—((R)-1-(4-hydroxybicyclo[2.2.2]octan-1-yl)ethyl)-4-azaspiro[2.5]octane-7-carboxamide and (S)-4-(5-(5-fluoro-2-methoxypyridin-4-yl)-1H-pyrazole-3-carbonyl)-N—((S)-1-(4-hydroxybicyclo[2.2.2]octan-1-yl)ethyl)-4-azaspiro[2.5]octane-7-carboxamide], the AC50 in assay [1] is 37.2 nM. Besides, the IC50 in assay [2] was determined as 60.1 nM.

Turning to `COc1cc(-c2cc(C(=O)N3CCC(C(=O)NC(C)c4cn5c(n4)COCC5)CC34CC4)n[nH]2)c(F)cn1` (mixture of isomers) [Example 415, (S)—N—((S)-1-(5,6-dihydro-8-imidazo[2,1-c][1,4]oxazin-2-yl)ethyl)-4-(5-(5-fluoro-2-methoxypyridin-4-yl)-1H-pyrazole-3-carbonyl)-4-azaspiro[2.5]octane-7-carboxamide and (S)—N—((R)-1-(5,6-dihydro-8H-imidazo[2,1-c][1,4]oxazin-2-yl)ethyl)-4-(5-(5-fluoro-2-methoxypyridin-4-yl)-1H-pyrazole-3-carbonyl)-4-azaspiro[2.5]octane-7-carboxamide], the AC50 in assay [1] came to 163 nM. Also, the IC50 in assay [2] came to 524 nM.

For `COc1cc(-c2cc(C(=O)N3CCC(C(=O)NC4CCC(C)(C)N(C)C4)CC34CC4)n[nH]2)c(F)cn1` (mixture of isomers) [Example 424, (S)-4-(5-(5-fluoro-2-methoxypyridin-4-yl)-1H-pyrazole-3-carbonyl)-N—((R)-1,6,6-trimethylpiperidin-3-yl)-4-azaspiro[2.5]octane-7-carboxamide and (S)-4-(5-(5-fluoro-2-methoxypyridin-4-yl)-1H-pyrazole-3-carbonyl)-N—((S)-1,6,6-trimethylpiperidin-3-yl)-4-azaspiro[2.5]octane-7-carboxamide], the AC50 in assay [1] is 942 nM. For the same molecule, the IC50 in assay [2] is 1950 nM.

These data come from patent US12606541B2, “PPARg modulators and methods of use” (Eisai R&D Management Co., Ltd., priority 2020, dated 2026).
